Experimental data reported in patent US9566341B1, “Compounds including Cox inhibitor moiety and enhanced delivery of active drugs using same” (University of Kentucky Research Foundation, priority 2011, dated 2017).
Several values for one entry are separate records, joined by “and”; a condition that tells them apart may be missing. Equal values may be shown once. Where a name gives a salt, the structure may show the parent alone.

Key:
[1] = Chemical stability in 0.3M acetate buffer pH 5.0 at 32° C.; format: physicochemical
Excerpt: The chemical stability of the prodrugs to hydrolysis and solvolysis at the appropriate temperatures will be determined by measuring concentrations over time in the buffers and solvents used in the solubility and diffusion studies. Chemical degradation rate constants will be important in distinguishing enzymatic degradation from non-enzymatic degradation. Codrug enzymatic metabolism rate constants can also be determined in skin homogenates, to ascertain if the values are useful in the QSPR multiple regression analysis. The kinetics of codrug enzymatic degradation in skin homogenates will be done using abdominal plastic surgery samples. Enzymatic reaction rates will be determined at several different codrug concentrations. The skin is homogenized (Polytron tissue homogenizer and ground glass homogenizer fitted with a glass pestle) in HEPES-buffered Hanks' balanced salt solution and the supernatant is obtained. The enzymatic hydrolysis rates are determined in the homogenate at 37° C. The codrug and its metabolites will be obtained by solid-phase extraction, or another appropriate extraction method. Naltrexone and any other metabolite formed will be assayed by HPLC and expressed as moles of metabolite per minute per milligram of protein. Protein concentrations in the supernatant will be measured by the Bradford method. Controls containing only codrug and HEPES-buffered Hanks' balanced salt solution at 37° C. will also be monitored to determine non-enzymatic hydrolysis.
Chemical and enzymatic stability was determined for the codrugs. For chemical stability studies, the codrug was put in prewarmed 0.3M acetate buffer pH 5.0 after solubilization in <5% ACN, if required, at 32° C. in an incubator. Samples were withdrawn at regular intervals and injected into the HPLC after appropriate dilutions. Enzymatic stability studies are important for estimation of conversion of codrugs in the plasma. […] All stability data was analyzed using pseudo first order kinetics. […]

[2] = In vitro diffusion study across microneedle-treated full thickness Yucatan miniature pig skin; format: in vitro ADME; settings: for naltrexol flux: 10% PG containing saturated donor formulation; for flux enhancement of salt form over free base form: NTX flux, p<0.005; for flux of naltrexone from the hydrochloride salt form: donor in 0.3M acetate buffer pH 5.0, MN treated skin, n=4
Protocol: For all in vitro experiments female Yucatan minipig skin (6 months old) were used. Skin sections were obtained by removing the subcutaneous fatty tissue by scalpel dissection, and were stored at −20° C. A PermeGear flow-through (In-Line, Riegelsville, Pa., USA) diffusion cell system was used for the skin permeation studies.
The skin was pierced 20 times with an array containing 5 MN (i.e., to make a total of 100 individual and non-over lapping piercings) before mounting the skin in the diffusion cell for the treatment group. The insertion of MN into skin was carried out manually by applying gentle finger pressure followed by instantaneous removal. MN's were distributed evenly within the 0.95 cm^2 area of skin and could easily be visualized after each 5 MN insertion, as to prevent reapplication in the same area. Single MN array of 5 were used simply out of ease for the experimental procedure. If any damage to an MN section was observed the section was replaced. […] Untreated skin samples were simply placed in the diffusion cells. Diffusion cells were kept at 32° C. using a circulating water bath. Data were collected using skin from a single pig 3-4 cells for the MN treated formulations.
The physiological receiver solution was water adjusted to pH 7.4 containing 20% ethanol, and the flow rate was adjusted to 1.5 ml/h. Each cell was charged with 0.25 ml of the donor in the donor compartment of the chamber. The diffusion cells were covered with a stopper to prevent evaporation. Samples were collected from the receiver compartment in six-hour increments over 48 h or for the length of the treatment. All samples were stored at 4° C. until analyzed by HPLC.
The in vitro permeation experiments were carried out to determine the transdermal flux of the parent drugs and the codrug, permeation coefficients as well as the concentration of the drug molecules in the skin at the end of the study. For all in vitro experiments Yucatan miniature pig (YP) skin was used. Full thickness skin was obtained by removing the subcutaneous fatty tissue by scalpel dissection, and stored at −20° C. A PermeGear flow-through (In-Line, Riegelsville, Pa., USA) diffusion cell system was used for the skin permeation studies. […] The skin was pierced 20 times with a 5 MN array (making 100 individual and non-over lapping piercings) before mounting the skin in the diffusion cell. MN pores were distributed evenly within the 0.95 cm^2 area of skin. Untreated skin samples were mounted directly onto the diffusion cells. The setup was maintained at 32° C. using a circulating water bath. Data collected using a minimum of 3-4 cells per treatment group. The receiver solution was water alkalified to pH 7.4 containing 20% ethanol at 37° C. Gentamycin sulfate (50 mg/L) was added to the receiver for 7 day studies as an antibacterial agent. The receiver flow rate was adjusted to 1.5 ml/h to maintain skin conditions. Each cell was charged with 0.25 ml of the donor and the diffusion cells were covered with a stopper to prevent evaporation of formulation. Samples were collected at regular increments over 48 hours or for the length of the treatment. Drug was concentrated 10 fold by evaporating 1 ml of the collected sample under nitrogen and reconstituting in 100 μl of ACN for quantification. All samples were stored at 4° C. until analyzed by HPLC. The skin was removed at the end of the study and the treatment area was diced into small pieces using a scalpel after removing all excess drugs from top of the skin. Drug was extracted out by immersing the skin pieces in ACN overnight in a shaker water bath at 32° C. Samples were injected into the HPLC after appropriate dilution for quantitative analysis. The donor was also removed and quantified at the end of the study by direct injection onto HPLC after suitable dilution using ACN. All data was analyzed using Fick's first law of diffusion. […]

[3] = test system: hairless guinea pig micropores; test: In vivo micropore visualization by gentian violet/India ink staining after MN treatment; settings: for time the pores stay open after MN treatment: codrug gel under occlusion, patch changed at 3.5 days
Excerpt: The patches were removed at predetermined time points and the site was cleaned with sterile gauze. Gentian violet/India ink was applied as the dyeing agent at the MN treated sites and allowed to dry before excess dye was removed with ethanol and gauze. Both the dyes stain the viable epidermis but not the intact SC. […] The donor was removed from the top of the skin at the end of the study and analyzed by direct injection onto HPLC after suitable dilution using ACN.
All animal experiments were approved by the University of Kentucky IACUC. A proof of concept in vivo experiment was carried out. 4% w/w gels were prepared with the hydrochloride salt form of the codrug. Gels were formulated by dissolving 4% codrug salt in PG: buffer at pH 5.0=10:90 and 3.0% hydroxyethylcellulose (HEC) polymer (required to have a gel formulation). Polymer was dissolved over a 30 minute period to obtain a homogenous gel. The solution was stirred until a viscous gel resulted and then left at room temperature for 1½ to 2 hours to remove bubbles and ensure complete polymerization. The gel was saturated with excess solid and therefore was cloudy. MN treated animals were first cleaned topically with isopropyl alcohol, and 50 MN array was applied twice mutually perpendicular to each other to give a total of 100 pores at each site. 0.3 mL gel doses were applied to the dorsal region of the HGP. After application of the gel the skin was occluded with the occlusive patch and biocclusive tape was applied to prevent evaporation of the formulation. The patch was changed with new formulation at 3.5 days such that more than 50% intact codrug was always present in formulation. […] The patches were removed to obtain data at successive 24 h time intervals.
The patches were removed at predetermined time points and the site was cleaned with sterile gauze. Gentian violet/India ink was applied as the dyeing agent at the MN treated sites and allowed to dry before excess dye was removed with ethanol and gauze. Both the dyes stain the viable epidermis but not the intact SC.

[4] = Pharmacokinetic study with codrug HCl salt gel patches after MN treatment; format: in vivo, hairless guinea pig
Protocol: Microneedle treatment at each patch site contained 100 micropores created by a 1 cm^2 50 needle stainless steel array rotated 90° and inserted twice. […] Plasma samples were obtained from a jugular catheter over seven days and analyzed for drug concentration by LC/MS (Methods).
(§1) Hairless IAF guinea pigs (Charles River) weighing 350-650 g were used for these studies. All animal studies were in accordance with the institutional guidelines and approved by the University of Kentucky IACUC. Surgical procedure was performed to canulate the jugular vein. Blood samples (0.3 mL) were drawn from the jugular vein at regular time intervals for the time studied. MN treated animals were first cleaned topically with isopropyl alcohol, and two 50 MN arrays were then manually applied to each dose site. For MN treated GPs, four 0.3 mL gel doses were applied to the dorsal region of the hairless guinea pigs at 4 sites to obtain steady state plasma levels. […] The blood samples were immediately centrifuged at 10,000×g for 3 min; plasma was separated and stored at −70° C. until analysis.
as §1, with “70 g C” for “−70° C.”

[5] = Concentration of saturated donor solution; format: physicochemical; settings: hydrochloride salt; 0.3M acetate buffer at pH 5.0
Protocol: Solubility studies are carried out by equilibrating large excesses of each drug with the solvent studied. The experiments will be done at skin surface temperature (32° C.). To hasten the attainment of equilibrium, each slurry will be continuously shaken or stirred. Samples will be taken, filtered with an appropriate filter for the solvent, measured with respect to volume, and either assayed directly by HPLC or evaporated to dryness and reconstituted for assay. Binding of the compounds to the filter will be checked to eliminate the possibility of drug adsorption on the filter and/or filter casing. All toxic solvents and other chemicals will be handled with caution, and fume hoods will be used when appropriate.
In vitro experiments. The goal of the first set of in vitro experiments was to estimate flux and skin concentration of the base form of the codrug.

[6] = Micromedex 1.0, as fraction; cited from earlier work
[7] = listed as Compound 2U hydrochloride salt

O=C(Cc1ccccc1Nc1c(Cl)cccc1Cl)OC1CCC2(O)C3Cc4ccc(O)c5c4C2(CCN3CC2CC2)C1O5 (stereo not drawn) [Compound 2B]
Chemical stability [1]: 56.3 ± 9.5 days | naltrexol flux [2]: approximately 0.29±0.09 nmol/cm^2/h

O=C(Cc1ccccc1Nc1c(Cl)cccc1Cl)O[C@@H]1CC[C@@]2(O)[C@H]3Cc4ccc(O)c5c4[C@@]2(CCN3CC2CC2)C1O5 (stereo partly drawn) [Compound 2B]
half-life ([1]; buffer pH 5.0, 32° C.): ~56.3 days

O=C1CC[C@@]2(O)[C@H]3Cc4ccc(O)c5c4[C@@]2(CCN3CC2CC2)[C@H]1O5 [NTX HCl, Naltrexone Hydrochloride, reference compound]
pore visualization at day 4 (96 h) ([3]; MN followed by NTX HCl gel under occlusion): cannot be visualized

Oc1ccc2c3c1O[C@H]1[C@H](O)CC[C@@]4(O)[C@@H](C2)N(CC2CC2)CC[C@]314 [NTXOL, 6-β-Naltrexol, reference compound]
naltrexol flux [2]: 3.07±0.27 nmol/cm^2/h

Cl.O=C(Cc1ccccc1Nc1c(Cl)cccc1Cl)Oc1ccc2c3c1O[C@H]1C(=O)CC[C@@]4(O)[C@@H](C2)N(CC2CC2)CC[C@]314 [codrug salt]
Css estimated from Jss*A=Css*Cl ([4]; 4 patches, 400 MN treatments): around 1 ng/ml | intact codrug in plasma samples ([4]; LC/MS, over seven days): not detected | micropore staining with India ink ([4]; days 1, 4, 5, 6, and 7): Significant micropore staining | time at which pores closed ([4]; one guinea pig of four): 6 days | flux of NTX from the codrug in hairless guinea pig model ([4]; salt form, 10% PG formulation): not high enough to quantify | duration of significant NTX plasma levels ([4]; three out of the four guinea pigs, four patches, single MN pretreatment): 7 days | concentration of donor solution [5]: 39300 µg/mL | flux enhancement of salt form over free base form [2]: 13 fold | flux enhancement of salt form over free base form [2, 7]: about 13 fold | flux of naltrexone from the hydrochloride salt form [2]: 5.42±1.5 nmol/(cm^2/h) and 5.5 nmol/(cm^2/h) | flux of naltrexone from the hydrochloride salt form [2, 7]: 5.42±1.5 nmol/(cm^2/h) | flux at higher concentrations of PG ([2]; salt form, 25% and 50% PG, saturated donor): flux decreased significantly | flux of 10% PG containing formulation versus aqueous formulation ([2]; salt form, saturated donor, one way ANOVA): no significant difference in flux | time the pores stay open after MN treatment [3, 7]: ≤ 7 days | time the pores stay open after MN treatment ([3]; listed as HCl salt form of the compound): ≤ 7 days

O=C(O)Cc1ccccc1Nc1c(Cl)cccc1Cl [diclofenac, Diclofenac]
oral bioavailability [6]: 0.55
